Like-named read-outs stand apart in the source and are kept apart here. Bounds are passed on as bounds.

Test [1] addresses T1, SMN_Y109A (Homo sapiens, UniProt Q16637, Y109A).
T1 construct: SMN (aa 82–147); His (N, cleaved yes); made in house; host or cells: E. coli BL21 (DE3) Codon plus RIL
Nature of the test: ITC binding to SMN Tudor mutant Y109A. The following applies: Fig. 3d. An excerpt: (§1) The coding DNA fragments of following Tudor domains were cloned into pET28-MHL vector: SMN (aa 82–147), UHRF1 (aa 126–285), SMNDC1 (aa 53–130), TDRD3 (aa 554–611), SND1 (aa 650–910), TDRD2 (aa 327–420), FXR1 (aa 2–132), PHF1 (aa 28–87), SGF29 (aa 115–293), JMJD2A (aa 897–1101), 53BP1 (aa 1483–1606), SETDB1 (aa 190–410), LBR (aa 1–67), ZGPAT (aa 120–271). The coding regions of chromodomain of CBX7 (aa 8–62), PWWP domain of DNMT3A (aa 275–417), WD40 repeats of WDR5 (aa 24–334) and CW domain of ZCWPW2 (aa 21–78) were also subcloned into pET28-MHL vector to generate N-terminally His-tagged fusion protein. The MBT repeats of L3MBTL1 (aa 200–522) and L3MBTL2 (aa 170–625) were subcloned into pET28GST-LIC vector to generate N-terminally GST-His-tagged fusion protein. All the plasmids were generated by ligase independent cloning (Vazyme Biotech, C112 or ABclonal Technology, RK21020). […] The molecular weight of all protein samples was measured by mass spectrometry.
(§2) For the ITC measurement, the concentrated proteins were diluted into 20 mM Tris-HCl, pH 7.5, 150 mM NaCl (ITC buffer); the lyophilized compounds were dissolved in the same buffer, and the pH value was adjusted by adding 2 M NaOH or 2 M HCl. […] Compound concentrations were calculated from the mass and the volume of the solvent. […]

For test [2], the target named is T2, SMN_Y127A (Homo sapiens, UniProt Q16637, Y127A).
T2 construct: cloned into pET28-MHL vector: SMN (aa 82–147); His (N, cleaved yes); made in house; host or cells: E. coli BL21 (DE3) Codon plus RIL
T2 sequence (Q16637 82-147 Y127A): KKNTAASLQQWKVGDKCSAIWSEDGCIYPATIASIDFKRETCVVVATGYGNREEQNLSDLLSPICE
Description: ITC binding to SMN Tudor mutant Y127A. The following applies: Fig. 3d.
Excerpt: as §1, §2

Test [3] addresses T3, SND1 (Homo sapiens, UniProt Q7KZF4).
T3 construct: SND1 (aa 650–910); His (N, cleaved yes); made in house; host or cells: E. coli BL21 (DE3) Codon plus RIL
T3 sequence (Q7KZF4 650-910): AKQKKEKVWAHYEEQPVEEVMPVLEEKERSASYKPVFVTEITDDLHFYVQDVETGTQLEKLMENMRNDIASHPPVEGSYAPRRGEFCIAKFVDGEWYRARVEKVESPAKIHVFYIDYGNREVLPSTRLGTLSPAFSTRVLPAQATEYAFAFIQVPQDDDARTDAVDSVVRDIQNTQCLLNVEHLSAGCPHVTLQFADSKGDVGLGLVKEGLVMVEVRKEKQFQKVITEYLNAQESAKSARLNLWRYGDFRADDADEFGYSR
Nature of the test: ITC binding to SND1. An excerpt:
The coding DNA fragments of following Tudor domains were cloned into pET28-MHL vector: SMN (aa 82–147), UHRF1 (aa 126–285), SMNDC1 (aa 53–130), TDRD3 (aa 554–611), SND1 (aa 650–910), TDRD2 (aa 327–420), FXR1 (aa 2–132), PHF1 (aa 28–87), SGF29 (aa 115–293), JMJD2A (aa 897–1101), 53BP1 (aa 1483–1606), SETDB1 (aa 190–410), LBR (aa 1–67), ZGPAT (aa 120–271). The coding regions of chromodomain of CBX7 (aa 8–62), PWWP domain of DNMT3A (aa 275–417), WD40 repeats of WDR5 (aa 24–334) and CW domain of ZCWPW2 (aa 21–78) were also subcloned into pET28-MHL vector to generate N-terminally His-tagged fusion protein. The MBT repeats of L3MBTL1 (aa 200–522) and L3MBTL2 (aa 170–625) were subcloned into pET28GST-LIC vector to generate N-terminally GST-His-tagged fusion protein. All the plasmids were generated by ligase independent cloning (Vazyme Biotech, C112 or ABclonal Technology, RK21020). […] The proteins were further purified by Superdex75 or Superdex200 gel-filtration column (GE Healthcare) in a buffer containing 20 mM Tris-HCl, pH 7.5, 150 mM NaCl and 1 mM DTT. For crystallization experiments, purified proteins were concentrated to 18 mg/mL for SMN, 23 mg/mL for UHRF1 and 10 mg/mL for TDRD3 in the gel-filtration buffer. […] The molecular weight of all protein samples was measured by mass spectrometry.
For the ITC measurement, the concentrated proteins were diluted into 20 mM Tris-HCl, pH 7.5, 150 mM NaCl (ITC buffer); the lyophilized compounds were dissolved in the same buffer, and the pH value was adjusted by adding 2 M NaOH or 2 M HCl. […] Compound concentrations were calculated from the mass and the volume of the solvent. […] The protein with a concentration of 50–100 μM was placed in the cell chamber, and the compounds with a concentration of 0.5–2 mM in syringe was injected in 25, 20, or 20 successive injections with a spacing of 180, 150, or 120 s for VP-ITC, iTC-200, or Nano-ITC, respectively, as previously described[30]–[32]. iTC-200 or Nano-ITC data were consistent with those from the VP-ITC instrument, based on ITC results of SMN-compound 1 detected by using all the instruments. […]

For test [4], the target named is T4, L3MBTL1 (MBT) (Homo sapiens, UniProt Q9Y468).
T4 construct: L3MBTL1 (aa 200–522); GST-His (N, cleaved yes); made in house; host or cells: E. coli BL21 (DE3) Codon plus RIL
T4 sequence (Q9Y468 268-590): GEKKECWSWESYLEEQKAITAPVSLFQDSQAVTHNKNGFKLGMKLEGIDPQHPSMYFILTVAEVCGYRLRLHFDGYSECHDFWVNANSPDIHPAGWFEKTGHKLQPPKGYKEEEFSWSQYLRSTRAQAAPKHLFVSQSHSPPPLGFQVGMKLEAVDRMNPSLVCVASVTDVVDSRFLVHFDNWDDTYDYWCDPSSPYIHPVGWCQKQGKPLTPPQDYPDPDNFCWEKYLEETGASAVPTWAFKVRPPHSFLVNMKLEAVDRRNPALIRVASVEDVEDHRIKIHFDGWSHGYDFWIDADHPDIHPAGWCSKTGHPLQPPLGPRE
Nature of the test: ITC binding to MBT repeats of L3MBTL1.
Excerpt: as §1, §2

Test [5] has as its target T5, SMN_W102F (Homo sapiens, UniProt Q16637, W102F).
T5 construct: SMN (aa 82–147); His (N, cleaved yes); made in house; host or cells: E. coli BL21 (DE3) Codon plus RIL
Description: ITC binding to SMN Tudor mutant W102F. The following applies: Fig. 3d.
Excerpt: as §1, §2

Test [6] has as its target T6, ZCWPW2 (CW) (Homo sapiens, UniProt Q504Y3).
T6 construct: ZCWPW2 (aa 21–78); His (N, cleaved yes); made in house; host or cells: E. coli BL21 (DE3) Codon plus RIL
Nature of the test: ITC binding to CW domain of ZCWPW2. The following applies: Fig. 1c.
Excerpt: as §1, §2

The target of test [7] is T7, JMJD2A (Homo sapiens, UniProt O75164).
T7 construct: JMJD2A (aa 897–1101); His (N, cleaved yes); made in house; host or cells: E. coli BL21 (DE3) Codon plus RIL
T7 sequence (O75164 897-1064): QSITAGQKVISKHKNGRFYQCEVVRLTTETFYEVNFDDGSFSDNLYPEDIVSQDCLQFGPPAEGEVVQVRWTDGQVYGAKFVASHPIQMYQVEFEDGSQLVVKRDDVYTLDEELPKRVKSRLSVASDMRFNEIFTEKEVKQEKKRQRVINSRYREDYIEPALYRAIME
Description: ITC binding to JMJD2A. As to conditions: Fig. 1c.
Excerpt: as §1, §2

T6 sequence (Q504Y3 21-78): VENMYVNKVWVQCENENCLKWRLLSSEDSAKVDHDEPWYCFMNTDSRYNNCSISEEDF
T5 sequence (Q16637 82-147 W102F): as the sequence (Q16637 82-147 Y127A) above, with W21F, A46Y counted along it
T1 sequence (Q16637 82-147 Y109A): as the sequence (Q16637 82-147 Y127A) above, with Y28A, A46Y counted along it

With `Cn1c2c(c(=N)c3c1CCC3)CCC2` [Compound 1, 4-methyl-2,3,4,5,6,7-hexahydrodicyclopenta[b,e]pyridin-8(1H)-imine], the Kd in test [1] is 15 ± 1 µM; in test [2], more than 100 µM; in test [3] (ITC, Fig. 1c, read-out: Kd (SND1)) it was more than 100 µM; in test [3] (Supplementary Fig. 11c, VP-ITC, read-out: Kd, ITC binding curve, SND1) it was 244 ± 51 µM; in test [4] (ITC, Fig. 1c), more than 100 µM; in test [5], more than 100 µM. Further, the Kd in test [6] and in test [7] was more than 244 µM throughout. In test [3] (Supplementary Fig. 2d), the “ITC binding curve, SND1 (in words)” value is recorded as “Weak binding”. The “ITC binding curve, MBT repeats of L3MBTL1 (in words)” value in test [4] (Supplementary Fig. 2f) is reported as “Weak binding”.

Values taken from publication PMC9481570, “A small molecule antagonist of SMN disrupts the interaction between SMN and RNAP II” (Nature Communications, 2022).
